# Legend:
# [1] = test system: fibrotic liver or kidney diseases in human; test: Correlation of the anti-fibrotic effect in the animal model with the human pharmacokinetic; type: in vivo; details: from fibrotic area versus Cmax or AUC
# Protocol: A comparison of the systemic exposure (Cmax, AUC) of (5,E)-methyl-7-(1-(2-(2-ethylbutylamino)-2-oxoethyl)-2-oxo-1,2-dihydro-pyridin-3-ylamino)-6-(1-methyl-1H-imidazole-5-carboxamido)-7-oxohept-2-enoate in dosage effective in the animal experiments with the systemic exposition which is achieved in human allows an estimation of the potential effective dose range.
# In addition, the Cmax or AUC being achieved in human by the dosage of 10, 20, and 50 mg compound of formula (I) is shown.
# [2] = target: T1, TG2 (Mus musculus, UniProt P21981); test: Immune-histochemical localisation of the complex of compound and TG2 in kidney tissue of UUO-mice; type: in vivo, C57BL/6-mouse; details: oral, different dosages, compound-specific antibody
# T1 construct: The immune-histochemical localisation of the complex of compound of formula (I) and TG2 in the kidney tissue; from tissue; host or cells: kidney tissue of UUO C57BL/6 mice
# T1 sequence (P21981 1-686): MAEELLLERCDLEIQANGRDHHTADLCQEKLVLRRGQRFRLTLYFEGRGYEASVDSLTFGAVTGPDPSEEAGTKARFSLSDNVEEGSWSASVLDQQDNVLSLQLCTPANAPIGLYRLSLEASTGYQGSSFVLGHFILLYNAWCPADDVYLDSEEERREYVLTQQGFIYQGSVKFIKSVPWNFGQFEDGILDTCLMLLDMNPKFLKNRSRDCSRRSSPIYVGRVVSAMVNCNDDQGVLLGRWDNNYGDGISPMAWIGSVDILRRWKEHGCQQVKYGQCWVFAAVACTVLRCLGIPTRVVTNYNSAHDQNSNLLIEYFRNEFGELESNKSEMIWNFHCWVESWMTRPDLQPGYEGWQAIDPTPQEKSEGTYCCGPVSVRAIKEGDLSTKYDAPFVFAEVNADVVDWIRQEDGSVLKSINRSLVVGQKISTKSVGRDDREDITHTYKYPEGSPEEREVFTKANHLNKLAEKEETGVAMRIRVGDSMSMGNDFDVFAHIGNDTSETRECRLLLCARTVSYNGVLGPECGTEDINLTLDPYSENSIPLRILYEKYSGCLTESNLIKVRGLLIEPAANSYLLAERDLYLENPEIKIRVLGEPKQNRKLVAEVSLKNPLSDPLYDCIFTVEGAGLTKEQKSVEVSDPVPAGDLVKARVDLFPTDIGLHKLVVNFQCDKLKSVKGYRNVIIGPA
# Protocol: Groups of 8 UUO-mice were treated directly after ligation of the ureter over a time period of two weeks with three different dosages of said compound: 100 mg/kg body weight, 300 mg/kg body weight, and 1000 mg/kg body weight. The daily dosage was administered orally as a suspension at intervals of 8 hours. In a control group, the UUO-mice were treated in same way but merely with the vehicle methyl cellulose. After the end of the treatment, the histopathological investigation of the kidney tissue as well as the determination of the amount of hydroxyproline in the kidney was performed. Furthermore, an immune-histochemical localisation of the complex of (S,E)-methyl-7-(1-(2-(2-ethylbutylamino)-2-oxoethyl)-2-oxo-1,2-dihydro-pyridin-3-ylamino)-6-(1-methyl-1H-imidazole-5-carboxamido)-7-oxohept-2-enoate and TG2 by means of (S,E)-methyl-7-(1-(2-(2-ethylbutylamino)-2-oxoethyl)-2-oxo-1,2-dihydro-pyridin-3-ylamino)-6-(1-methyl-1H-imidazole-5-carboxamido)-7-oxohept-2-enoate-specific antibody was carried out.
# [3] = test system: STAM-model in the C57BL/6-mouse; test: Stelic animal model (STAM-model) for non-alcoholic steatohepatitis; type: in vivo
# Protocol: The anti-fibrotic effect of compound of formula (I) in the liver was investigated in a STAM-model for non-alcoholic steatohepatitis. This model bases on the induction of a chronical fibrotic inflammation of the liver by means of the combination of a chemical noxin (Streptozotocin) and a fat-containing diet in the C57BL/6-mouse. The pathology is similar to the described NASH in human.
# Groups of 8 STAM-mice were treated directly over a time period of two weeks with three different dosages of said compound: 100 mg/kg body weight, 300 mg/kg body weight, and 1000 mg/kg body weight. The daily dosage was administered orally as a suspension in two parts at intervals of 8 hours. In a control group, the STAM-mice were treated in same way but merely with the vehicle methyl cellulose. After the end of the treatment, a measurement of the biochemical parameter in the Plasma and after dissection of the animals a histopathological investigation for the liver, the determination of the fat content of the liver as well as the determination of the expression of inflammation and fibrosis marker was performed.
# [4] = Pharmacokinetic in healthy volunteers, multiple dosing over 7 days; type: in vivo, human; details: up to 100 mg
# Protocol: The pharmacokinetic of (S,E)-methyl-7-(1-(2-(2-ethylbutylamino)-2-oxoethyl)-2-oxo-1,2-dihydro-pyridin-3-ylamino)-6-(1-methyl-1H-imidazole-5-carboxamido)-7-oxohept-2-enoate (compound of formula (I)) was investigated in healthy volunteers. Cohorts of 18 subjects each were treated with a daily dose of 10, 20, 50 and 100 mg compound of formula (I), respectively over a time period of 7 days. The determination of said compound in blood plasma was performed by means of a previously validated HPLC-MS/MS method.
smiles,measurement,setting,value
"CCC(CC)CNC(=O)Cn1cccc(NC(=O)[C@H](CC/C=C/C(=O)OC)NC(=O)c2cncn2C)c1=O [compound of formula (I), (S,E)-methyl-7-(1-(2-(2-ethylbutylamino)-2-oxoethyl)-2-oxo-1,2-dihydro-pyridin-3-ylamino)-6-(1-methyl-1H-imidazole-5-carboxamido)-7-oxohept-2-enoate]",human dosage at which the anti-fibrotic effect shown in the animal model can be achieved,[1],20 mg
same,immune-histochemical localisation of the complex of compound and TG2 in the kidney tissue,[2],reach the target site and inhibits the target molecule
same,liver histology,"[3]; 100, 300, 1000 mg/kg body weight daily, oral suspension in two parts, two weeks","significant, dosage dependent improvement"
same,fibrotic area in the liver,"[3]; 100, 300, 1000 mg/kg, significant in the middle and high dosage group","marked, dosage dependent reduction"
same,liver inflammation,[3]; STAM mice,dose-dependent and significant reduction
same,fat content in the liver,"[3]; STAM-mice, oral, two weeks",no influence
same,reduction of the fibrosis compared with positive control Telmisartan,"[3]; high dosage group, comparison with historical data",lay in the area of Telmisartan
same,NAFLD Activity Score (NAS),"[3]; middle and high dosage group (300, 1000 mg/kg), mainly reduction of inflammation and ballooning",reduced in the middle and high dosage group
same,systemic exposure in human versus dose,[4],increases linearly

# — patent publication US12661348B2, “Systemic formulation of a pyridinone derivate for TG2-related diseases” (Dr. Falk Pharma GmbH, priority 2020, dated 2026)
